According to patent US7605168B2 (Plexxikon, Inc., priority 2004, dated 2009):

How the values were obtained:
[1] = test system: TNFα levels in serum of LPS-challenged rats; assay: Rat inhibition studies: serum TNFα after iv LPS challenge; type: in vivo; details: 5 mg/kg po, LPS 0.1 mg/kg iv 2 h after dosing, percent decrease in serum TNFα versus vehicle, read-out: % inhibition r TNFα
Method: All studies were done with male rats CD (SD) IGS BR (Crl) (Charles River, France), which were grouped in to 5 animal groups.
At the end of the acclimatization period, the non-fasted rats were weighed, individually identified on the tail with a permanent marker and administered by oral (po) or interperitoneal (ip) route with either vehicle, reference or test compound in a volume of 10 mL/kg adapted to the body weight. The animals were gathered in groups of 5 animals in a polystyrene labeled cage with sawdust covered floors. 2-hours after vehicle, reference or test substance administration, rats received an intravenous (iv) injection of 0.1 mg/kg LPS in a volume of 1 mL/kg of body weight. 2 h after LPS challenge (or as indicated in Tables 3B and 4B), blood samples were collected into tubes without anticoagulant by retro-orbital puncture under gas (isoflurane) anesthesia. Samples were allowed to clot at room temperature for 5 to 10 min then put on ice until there were prepared by centrifugation (6000×g for 3 min at 4° C.) and stored at −20° C. until use. TNFα levels were measured in serum samples in duplicate by ELISA technique according to the manufacturer's procedure (Rat TNFα kit Quantikine M (RTA00, R&D System, France)). Data are reported as percent decrease in observed TNFα levels versus TNFα levels observed for vehicle dosed animal groups.

[2] = biological target: T1, PDE4B: catalytic domain of human PDE4B from S152-S528 (Homo sapiens, UniProt Q07343); assay: PDE4 IC50 determination by Scintillation Proximity Assay (SPA), PDE4B catalytic domain; type: biochemical; details: [3H]cAMP SPA, 30 min at 30° C.
T1 construct: The catalytic domain of human PDE4B from S152-S528; His6 (N, cleaved yes); thrombin cleavage site (N, cleaved yes); made in house; host or cells: E. coli BL21 (DE3) RIL
In short: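 Human PDE4B catalytic domain (80 ng/ml) hydrolysed [3H]cAMP in 50 mM Tris pH 7.5, 8.3 mM MgCl, 1.7 mM EGTA, 0.01% BSA for 30 min at 30 °C. Reaction was stopped with yttrium silicate SPA beads in 18 mM ZnSO4, and bound [3H]AMP was counted by scintillation. IC50 came from non-linear regression.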

[3] = biological target: T2, PDE4D: catalytic domain S316-V692 (Homo sapiens, UniProt Q08499); assay: PDE4 IC50 determination by Scintillation Proximity Assay (SPA), PDE4D catalytic domain; type: biochemical; details: [3H]cAMP SPA, 30 min at 30° C.
T2 construct: pET15S PDE4D S316-V692-X; His6 (N, cleaved yes); thrombin cleavage site (N, cleaved yes); made in house; host or cells: E. coli BL21 (DE3) RIL
Method: IC50s were determined by Scintillation Proximity Assay (SPA). The principle of the assay is based on the fact that cAMP, the PDE4 substrate, binds weakly to Yittrium Silicate SPA beads, whereas AMP, the product of PDE4 hydrolysis binds strongly. Thus, the extent of PDE4 hydrolysis of a sample of [^3H]cAMP can be measured because only the [^3H]AMP produced by PDE4 hydrolysis will bind to the SPA beads and produce a scintillation signal.
[…] Enzyme was stored in 50% glycerol at −20°. See Example 144.
Compounds tested (see Tables 5 for compounds and results) were 3-fold serially diluted 11 times in DMSO from a starting concentration of 4 mM or 40 μM, depending on compound potency. 1 μl of each dilution was transferred into duplicate wells of a white polystyrene 384-well assay plate (Corning #3710). In addition to the compound dilutions, each assay plate contained control wells with 1 μl of DMSO (to define 0% enzyme inhibition) or 1 μl of 200 μM roflumilast (to define 100% enzyme inhibition). Using a Beckman FX robot, 10 μl of [^3H] cAMP (Amersham TRK559) at […] in assay buffer (50 mM Tris, pH 7.5; 8.3 mM MgCl; 1.7 mM EGTA; 0.01% BSA) was transferred to each assay well. Next, 10 μl of PDE4 enzyme in assay buffer was added and the plates were shaken for 30 s. at 1000 rpm to start the cAMP hydrolysis reaction. The concentrations of enzyme used were: PDE4B, 80 ng/ml; PDE4D, 4 ng/ml; PDE4B2, 2.5 μl of 50% glycerol stock/ml; PDE4D5 0.083 μl of 50% glycerol stock/ml. Assay plates were covered and incubated for 30 min. at 30° C. Reactions were stopped by robotic addition of 10 μl of 5 mg/ml SPA beads (Amersham RPNQ0013) in 18 mM ZnSO4. The assay plates were covered with clear plastic film, centrifuged for 1 min. at 1000 RPM to settle the SPA beads, and counted using a Wallac TriLux scintillation counter. IC50's were calculated from the raw assay data by non-linear regression curve fitting using the Assay Explorer software package from MDL.

[4] = biological target: T3, PDE4D5: full-length human PDE4D5 isozyme (Homo sapiens, UniProt Q08499); assay: PDE4 IC50 determination by Scintillation Proximity Assay (SPA), full-length PDE4D5; type: biochemical; details: cell lysate, [3H]cAMP SPA
T3 construct: made in house; host or cells: baculovirus infected insect cells (pFastBacHT)
In short: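 Unpurified enzyme from cell lysates (PDE4B2 2.5 μl, PDE4D5 0.083 μl of 50% glycerol stock/ml) hydrolysing [3H]cAMP in 50 mM Tris pH 7.5, 8.3 mM MgCl, 1.7 mM EGTA, 0.01% BSA, 30 min at 30 °C. Stopped with yttrium silicate SPA beads in 18 mM ZnSO4; bead-bound [3H]AMP counted. IC50 by non-linear regression.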

T1 sequence (Q07343 324-700): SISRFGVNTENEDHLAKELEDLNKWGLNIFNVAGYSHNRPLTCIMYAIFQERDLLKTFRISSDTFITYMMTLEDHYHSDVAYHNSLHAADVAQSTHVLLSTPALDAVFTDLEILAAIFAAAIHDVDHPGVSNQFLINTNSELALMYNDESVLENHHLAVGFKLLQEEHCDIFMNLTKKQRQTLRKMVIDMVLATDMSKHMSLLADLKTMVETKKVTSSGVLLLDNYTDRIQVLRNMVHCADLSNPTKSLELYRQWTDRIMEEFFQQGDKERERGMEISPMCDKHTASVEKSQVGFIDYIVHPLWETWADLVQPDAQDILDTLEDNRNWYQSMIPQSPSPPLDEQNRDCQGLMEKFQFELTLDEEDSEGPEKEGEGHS
T3 sequence (Q08499 with tags, fused parts or gaps isoform Q08499-6): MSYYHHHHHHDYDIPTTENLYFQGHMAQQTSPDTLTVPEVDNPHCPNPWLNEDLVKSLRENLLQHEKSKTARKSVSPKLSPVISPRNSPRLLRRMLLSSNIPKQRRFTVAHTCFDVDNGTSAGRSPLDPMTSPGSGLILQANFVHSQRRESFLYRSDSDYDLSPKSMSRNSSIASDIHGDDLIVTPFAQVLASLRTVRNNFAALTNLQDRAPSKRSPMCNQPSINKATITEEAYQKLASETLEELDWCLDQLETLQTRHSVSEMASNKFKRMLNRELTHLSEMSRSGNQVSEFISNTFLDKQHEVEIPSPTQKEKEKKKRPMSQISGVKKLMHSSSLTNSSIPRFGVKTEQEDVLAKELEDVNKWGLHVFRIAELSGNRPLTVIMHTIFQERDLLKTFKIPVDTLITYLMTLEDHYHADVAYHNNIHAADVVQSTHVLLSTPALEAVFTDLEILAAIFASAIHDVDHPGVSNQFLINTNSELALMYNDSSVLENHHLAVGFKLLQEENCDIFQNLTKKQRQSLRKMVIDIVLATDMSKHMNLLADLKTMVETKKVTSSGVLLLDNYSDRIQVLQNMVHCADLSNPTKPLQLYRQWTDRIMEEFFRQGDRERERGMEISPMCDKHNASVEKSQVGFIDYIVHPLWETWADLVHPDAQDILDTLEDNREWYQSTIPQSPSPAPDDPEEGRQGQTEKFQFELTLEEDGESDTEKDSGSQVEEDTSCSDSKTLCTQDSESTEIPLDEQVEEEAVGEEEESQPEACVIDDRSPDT
T2 sequence (Q08499 380-756): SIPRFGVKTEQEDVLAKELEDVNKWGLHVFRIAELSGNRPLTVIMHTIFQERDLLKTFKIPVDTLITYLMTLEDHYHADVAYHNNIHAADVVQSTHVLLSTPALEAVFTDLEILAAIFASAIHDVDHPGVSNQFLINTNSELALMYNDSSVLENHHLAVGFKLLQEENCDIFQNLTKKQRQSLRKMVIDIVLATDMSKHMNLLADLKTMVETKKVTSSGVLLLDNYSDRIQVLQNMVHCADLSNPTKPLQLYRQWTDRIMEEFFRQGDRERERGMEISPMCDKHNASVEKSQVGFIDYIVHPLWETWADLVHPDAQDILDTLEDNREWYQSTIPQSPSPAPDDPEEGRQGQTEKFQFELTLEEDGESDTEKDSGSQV

Row | SMILES | inhibition in vivo at 5 mg/kg [1] [%] | IC50 [2] [µM] | IC50 [3] [µM] | IC50 [4] [µM]
1 | CCOc1ccc2ccccc2c1C(=O)n1cc(-c2ccc(OC)c(OC)c2)c2cccnc21 [Compound 52, [3-(3,4-Dimethoxy-phenyl)-pyrrolo[2,3-b]pyridin-1-yl]-(2-ethoxy-naphthalen-1-yl)-methanone] | ≥ 20 | < 10 | ≤ 10 | < 10
2 | CCOc1ccccc1C(=O)n1cc(-c2ccc(OC)c(OC)c2)c2cccnc21 [Compound 61, [3-(3,4-Dimethoxy-phenyl)-pyrrolo[2,3-b]pyridin-1-yl]-(2-ethoxy-phenyl)-methanone-amide] | ≥ 20 | < 10 | ≤ 10 | < 10
